From patent publication US20150174283A1, “Smart, Self-Decontaminating Polymer and Method for Inhibiting The Growth Of A Bacteria and Fungus” (priority 2012, published 2015)

Experiments:
Staphylococcus aureus = experiment: S. aureus growth on TSA plates with or without hydroxylamine and polymer foams; assay type: cell-based; details: TSA plates containing 500 uM HA, no polymer, 18 hours, 37 C
From the text: The microorganism, Staphylococcus aureus (S. aureus/Staph), was utilized. Staphylococcus aureus is an important bacterium to study and ultimately have the ability to inhibit, as Staphlococcus can cause a number of diseases as a result of infection. The strain Methicillin-resistant Staphylococcus aureus or MRSA is a multi-drug resistant bacterium, making any MRSA infection difficult to treat with standard antibiotics and is thus a more dangerous infection; the number of drug-resistant MRSA cases has increase by 90% over the past decade. MRSA is the most significant infection encountered in hospital settings, costing US hospitals $3.2 to 4.2 billion annually to treat infected patients. Patients with MRSA infections often require longer hospital stays and more time spent in intensive care units. […]

host cells = details: cited from earlier work
[1] = chlorination of thionin by enzymes in solution (bleaching followed at 598 nm); assay type: biochemical; details: substrate glucose
Method: The chlorinating activity of composite polymers was measured by following the chlorination of a colored substrate (thionin). The thionin is a blue-violet dye that absorbs at 598 nm and undergoes bleaching (to colorless) upon chlorination. A battery of tests were carried out in 100 mM phosphate citrate buffer at pH 4.0. […] The reaction mixture comprised 1.45 mL of the thionin/NaCl solution, 30 μL of the substrate solution (glucose or peroxide), and 25 μL of the enzyme solution (total). Buffer was used to replace the enzyme or substrate in control reactions.

NO [HA, hydroxylamine]
S. aureus growth (Staphylococcus aureus): does not inhibit the growth | S. aureus growth (Staphylococcus aureus; listed as Hydroxylamine): not effected

OO [hydrogen peroxide, Hydrogen peroxide]
concentration toxic to the host cells (host cells): > 3%

glucose oxidase
absorbance of thionin at 598 nm, after two minutes ([1]; 20 mM NaCl, pH 4.0): 0.670 | color change of thionin ([1]; thionin/NaCl solution, two minutes): no color change was observed
